*1 amine or outer side, *2 acyl side, *3 side chain or, on linkers, in order; H or OH if unused. Where a SMILES comes first, the peptide text is derived from it. [ ]: non-standard residue; d: D form. The star is where a group is joined. Tyr(3-F) = N[C@@H](Cc1ccc(O)c(F)c1)C(=O)O; Tyr(3-I) = N[C@@H](Cc1ccc(O)c(I)c1)C(=O)O; Phe(4-F) = N[C@@H](Cc1ccc(F)cc1)C(=O)O; Boc = CC(C)(C)OC(=O)*; CO = O=C([*:1])[*:2]; Ahx = NCCCCCC(=O)O; X1 = C1CCCN(*)CC1; βAla = NCCC(=O)O
Target: endothelin receptors
Assay: Receptor Binding Assay (displacement of radioactive-iodine-labeled endothelin-1 from swine heart membrane fraction)
Conditions: membrane fraction prepared from swine heart; endothelin-1 labeled with radioactive iodine; incubation at 25° C, 1 hour
Protocol: The membrane fraction prepared from swine heart was diluted to 0.15 mg/ml with an assaying buffer and dispensed to assaying tubes at 100 μl per tube. To this membrane fraction suspension were added 2 μl of a solution of endothelin-1labeled with 5 nM radioactive iodine and 3 μl of a 50% dimethylsulfoxide solution of the subject peptide, followed by incubation at 25° C. After 1 hour, the suspension was diluted with 900 μl of an ice-cooled assaying buffer and centrifuged at 12,000×G for 10 minutes to separate supernatant and precipitate. The precipitate contained cell membranes and endothelin receptors embedded therein. The receptor-bound endothelin, labeled with radioactive iodine, was also recovered in the precipitate. The radioactive iodine in this precipitate was counted, using a gamma ray counter, to determine the amount of radioactive-iodine-labeled endothelin bound to the endothelin receptors. The results of the quantitative determination are shown in IC50 (M) below.

| SMILES | IC50 [nM] |
| --- | --- |
| CC(C)C[C@H](NC(=O)OC(C)(C)C)C(=O)N[C@H](Cc1c[nH]c2ccccc12)C(=O)N[C@H](C)C(=O)NCCC(=O)N[C@@H](Cc1ccc(O)cc1)C(=O)N[C@H](Cc1ccccc1)C(=O)O [Example 1, Boc-Leu-(D)Trp-(D)Ala-βAla-Tyr-(D)Phe-OH] (Boc-L[dW][dA][βAla]Y[dF]-OH) | 4.6 |
| CC(C)C[C@H](NC(=O)OC(C)(C)C)C(=O)N[C@H](Cc1c[nH]c2ccccc12)C(=O)N[C@H](C)C(=O)NCCC(=O)N[C@@H](Cc1ccc(O)cc1)C(=O)N[C@@H](Cc1ccccc1)C(=O)O [Example 2, Boc-Leu-(D)Trp-(D)Ala-βAla-Tyr-Phe-OH] (Boc-L[dW][dA][βAla]YF-OH) | 9 |
| CC(C)C[C@H](NC(=O)OC(C)(C)C)C(=O)N[C@H](Cc1c[nH]c2ccccc12)C(=O)N[C@H](C)C(=O)NCCCCCC(=O)N[C@@H](Cc1ccc(O)cc1)C(=O)N[C@@H](Cc1ccccc1)C(=O)O [Example 5, Boc-Leu-(D)Trp-(D)Ala-εAhx-Tyr-Phe-OH] (Boc-L[dW][dA][Ahx]YF-OH) | 7.2 |
| CC(C)C[C@H](NC(=O)OC(C)(C)C)C(=O)N[C@H](Cc1c[nH]c2ccccc12)C(=O)N[C@H](C)C(=O)NCCC(=O)N[C@@H](Cc1ccc(O)c(F)c1)C(=O)N[C@@H](Cc1ccc(F)cc1)C(=O)O [Example 38, Boc-Leu-(D)Trp-(D)Ala-βAla-(m-F)Tyr-(p-F)Phe-OH] (Boc-L[dW][dA][βAla][Tyr(3-F)][Phe(4-F)]-OH) | 60 |
| CC(C)C[C@H](NC(=O)OC(C)(C)C)C(=O)N[C@H](Cc1c[nH]c2ccccc12)C(=O)N[C@H](C)C(=O)NCCC(=O)N[C@@H](CCC(=O)O)C(=O)O [Reference Example 1, Boc-Leu-(D)Trp-(D)Ala-βAla-Glu--OH, reference compound] (Boc-L[dW][dA][βAla]E-OH) | 700 |
| CC(C)C[C@H](NC(=O)OC(C)(C)C)C(=O)N[C@H](Cc1c[nH]c2ccccc12)C(=O)N[C@H](C)C(=O)NCCC(=O)N[C@H](CC(C)C)C(=O)O [Reference Example 2, Boc-Leu-(D)Trp-(D)Ala-βAla-(D)Leu--OH, reference compound] (Boc-L[dW][dA][βAla][dL]-OH) | 420 |

These reach a lower IC50. Values come first.

| IC50 [nM] | SMILES |
| --- | --- |
| 0.34 | CC(C)C[C@H](NC(=O)N1CCCCCC1)C(=O)N[C@H](Cc1c[nH]c2ccccc12)C(=O)N[C@H](C)C(=O)NCCC(=O)N[C@@H](Cc1ccc(O)cc1)C(=O)N[C@H](Cc1ccccc1)C(=O)O [Example 39, hexamethyleneimino-CO-Leu-(D)Trp-(D)Ala-βAla-Tyr-(D)Phe-OH] ({X1-CO}-L[dW][dA][βAla]Y[dF]-OH) |
| 0.71 | CC(C)C[C@H](NC(=O)N1CCCCCC1)C(=O)N[C@H](Cc1c[nH]c2ccccc12)C(=O)N[C@H](C)C(=O)NCCC(=O)N[C@@H](Cc1ccc(O)c(I)c1)C(=O)N[C@H](Cc1ccccc1)C(=O)O [Example 43, Hexamethyleneimino-CO-Leu-(D)Trp-(D)Ala-βAla-Tyr(I)-(D)Phe-OH] ({X1-CO}-L[dW][dA][βAla][Tyr(3-I)][dF]-OH) |

— patent publication US5614497A, “Peptide, production and use thereof” (Takeda Chemical Industries, Ltd., priority 1991, dated 1997)
